The numbers were not newly measured in US20240423997A1, “METHOD OF TREATING AMYOTROPHIC LATERAL SCLEROSIS” (priority 2021, published 2024), which cites them from elsewhere.

The conditions of this series: in vivo; Shibuya 2001; cited from earlier work.

For `O=S(=O)(c1cccc2c(O)nccc12)N1CCCNCC1` [M3, hydroxyfasudil], the half-life entry is “about 8 hours”.
